The values below come from patent US12466812B2, “Pyridinyltriazine derivative having protein kinase inhibitory activity, and pharmaceutical composition for preventing, ameliorating, or treating cancer comprising same” (KOREA INSTITUTE OF SCIENCE AND TECHNOLOGY, priority 2019, dated 2025).

The structures appear in SMILES notation.

Broadly, the GI50 is the concentration giving 50% growth inhibition. For orientation: IC50 means the point on the concentration scale where inhibition reaches its midpoint.

Test [1] concerns AN3-CA, a uterine cancer cell line. The experiment in a line: Inhibitory activity against cancer cell proliferation (Experimental Example 2). In kind it is cell-based. The settings on record: Homo sapiens, Table 2.
For test [2], the target named is FGFR2 mutant (N549H) (Homo sapiens, UniProt P21802, N549H). The test can be described thus: Pan-FGFR mutant enzymatic activity. Type of test: biochemical. The settings on record: mutant enzyme. The procedure:
(§1) The inhibitory activity against pan-FGFR mutants of the compounds synthesized in Examples 1, 8, 13, 22, and 24 was measured, the inhibitory activity on each of enzymatic activity and cellular activity was evaluated, and the results are shown in Tables 3 and 4 below.

The target in test [3] is FGFR2 mutant (V564F) (Homo sapiens, UniProt P21802, V564F). The experiment in a line: Pan-FGFR mutant enzymatic activity. In kind it is biochemical. The settings on record: mutant enzyme. As to the method:
as §1

The target in test [4] is FGFR3 mutant (K650E) (Homo sapiens, UniProt P22607, K650E). The test can be described thus: Pan-FGFR mutant enzymatic activity. In kind it is biochemical. To be noted: mutant enzyme. As to the method: as §1
Test [5] deals with FGFR3 mutant (K650M) (Homo sapiens, UniProt P22607, K650M). The test can be described thus: Pan-FGFR mutant enzymatic activity. In kind it is biochemical. To be noted: mutant enzyme. As to the method: as §1
Test [6] concerns the target FGFR3 mutant (V555M) (Homo sapiens, UniProt P22607, V555M). The test can be described thus: Pan-FGFR mutant enzymatic activity. Type of test: biochemical. To be noted: mutant enzyme. The procedure: as §1
Test [7] has as its system AN3-CA. The test can be described thus: Pan-FGFR mutant cellular activity. Type of test: cell-based. To be noted: Homo sapiens, mutant cell, Table 4, read-out: GI50, AN3-CA (breast cancer cell line). As to the method:
as §1

Test [8] relates to J82 (bladder cancer cell line). The experiment in a line: Pan-FGFR mutant cellular activity. In kind it is cell-based. The settings on record: Table 4. As to the method:
as §1

Test [9] concerns KMS-11 (myeloma cell line). The test can be described thus: Pan-FGFR mutant cellular activity. To be noted: Homo sapiens, Table 4. Type of test: cell-based. The procedure:
as §1

The test system of test [10] is UMUC3 (bladder cancer cell line). The test can be described thus: Pan-FGFR mutant cellular activity. Type of test: cell-based. To be noted: Homo sapiens, Table 4. The procedure: as §1

FGFR2 mutant (N549H), sequence (P21802 22-821 N549H): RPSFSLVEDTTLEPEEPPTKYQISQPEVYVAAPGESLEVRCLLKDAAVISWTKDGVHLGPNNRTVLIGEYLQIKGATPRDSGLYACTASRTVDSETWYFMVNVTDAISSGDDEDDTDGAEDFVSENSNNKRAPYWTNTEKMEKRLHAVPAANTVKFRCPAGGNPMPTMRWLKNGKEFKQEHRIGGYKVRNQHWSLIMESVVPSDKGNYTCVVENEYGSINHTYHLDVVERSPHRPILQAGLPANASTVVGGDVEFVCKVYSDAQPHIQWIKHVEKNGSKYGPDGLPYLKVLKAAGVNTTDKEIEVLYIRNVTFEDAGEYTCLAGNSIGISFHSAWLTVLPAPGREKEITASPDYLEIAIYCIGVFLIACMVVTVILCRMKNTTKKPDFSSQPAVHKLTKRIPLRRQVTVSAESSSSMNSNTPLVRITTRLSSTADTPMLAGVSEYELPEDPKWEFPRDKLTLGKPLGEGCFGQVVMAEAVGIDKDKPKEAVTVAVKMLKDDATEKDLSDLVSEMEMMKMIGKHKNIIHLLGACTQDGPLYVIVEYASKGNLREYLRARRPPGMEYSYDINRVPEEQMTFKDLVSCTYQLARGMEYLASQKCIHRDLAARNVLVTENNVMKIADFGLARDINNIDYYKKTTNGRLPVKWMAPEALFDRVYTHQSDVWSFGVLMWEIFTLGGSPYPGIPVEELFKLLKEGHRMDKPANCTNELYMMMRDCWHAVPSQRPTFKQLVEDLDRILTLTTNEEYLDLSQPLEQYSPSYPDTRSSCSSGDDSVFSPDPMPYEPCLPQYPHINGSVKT
FGFR3 mutant (V555M), sequence (P22607 23-806 V555M): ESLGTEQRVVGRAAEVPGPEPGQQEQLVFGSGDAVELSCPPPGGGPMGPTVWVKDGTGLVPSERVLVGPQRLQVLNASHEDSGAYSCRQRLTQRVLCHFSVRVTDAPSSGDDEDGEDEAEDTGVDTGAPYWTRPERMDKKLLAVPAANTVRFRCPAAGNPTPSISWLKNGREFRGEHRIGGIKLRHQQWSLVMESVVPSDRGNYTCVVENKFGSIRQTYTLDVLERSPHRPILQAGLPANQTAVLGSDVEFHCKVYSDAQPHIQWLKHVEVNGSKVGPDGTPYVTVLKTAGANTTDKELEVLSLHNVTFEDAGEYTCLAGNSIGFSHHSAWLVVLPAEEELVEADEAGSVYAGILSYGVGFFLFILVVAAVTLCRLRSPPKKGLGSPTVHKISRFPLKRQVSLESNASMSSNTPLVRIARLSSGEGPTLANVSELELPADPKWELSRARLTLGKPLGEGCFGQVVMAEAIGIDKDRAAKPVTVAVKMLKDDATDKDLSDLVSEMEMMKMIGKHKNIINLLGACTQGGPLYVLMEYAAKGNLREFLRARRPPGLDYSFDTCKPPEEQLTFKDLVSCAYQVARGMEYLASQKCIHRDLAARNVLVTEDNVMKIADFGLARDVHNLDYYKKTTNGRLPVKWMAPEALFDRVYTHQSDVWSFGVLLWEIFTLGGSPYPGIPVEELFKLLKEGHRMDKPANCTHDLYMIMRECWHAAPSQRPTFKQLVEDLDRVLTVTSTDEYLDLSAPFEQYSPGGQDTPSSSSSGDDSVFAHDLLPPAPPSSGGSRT
FGFR3 mutant (K650E), sequence (P22607 23-806 K650E): as the sequence (P22607 23-806 V555M) above, with M533V, K628E counted along it
FGFR3 mutant (K650M), sequence (P22607 23-806 K650M): as the sequence (P22607 23-806 V555M) above, with M533V, K628M counted along it
FGFR2 mutant (V564F), sequence (P21802 22-821 V564F): as the sequence (P21802 22-821 N549H) above, with H528N, V543F counted along it

`COc1ccccc1Nc1ncnc(-c2cccnc2Nc2c(Cl)c(OC)cc(OC)c2Cl)n1` [Example 5]: the GI50 in [1] fell in the range of 1000 to 10000 nM.
On the same count and under the same terms, under `COc1cc(OC)c(Cl)c(Nc2ncccc2-c2ncnc(NCCN(C)C)n2)c1Cl` [Example 3, N^1-(4-(2-((2,6-dichloro-3,5-dimethoxyphenyl)amino)pyridin-3-yl)-1,3,5-triazin-2-yl)-N^2,N^2-dimethylethane-1,2-diamine] stands 1000 to 10000 nM; under `COc1cc(OC)c(Cl)c(Nc2ncccc2-c2ncnc(Nc3cnn(C4CCOCC4)c3)n2)c1Cl` [Example 21, 4-(2-((2,6-dichloro-3,5-dimethoxyphenyl)amino)pyridin-3-yl)-N-(1-(tetrahydro-2H-pyran-4-yl)-1H-pyrazol-4-yl)-1,3,5-triazin-2-amine], less than 1000 nM.
In turn, `COc1cc(N2CCN(C)CC2)ccc1Nc1ncnc(-c2cccnc2Nc2c(Cl)c(OC)cc(OC)c2Cl)n1` [Example 14] gave a GI50 in test [1] of less than 1000 nM.
`COc1cc(OC)c(Cl)c(Nc2ncccc2-c2ncnc(Nc3ccccc3)n2)c1Cl` [Example 4, 4-(2-((2,6-dichloro-3,5-dimethoxyphenyl)amino)pyridin-3-yl)-N-phenyl-1,3,5-triazin-2-amine]: the GI50 in test [1] is less than 1000 nM.
As for `COc1cc(N2C[C@@H](C)N[C@@H](C)C2)ccc1Nc1ncnc(-c2cccnc2Nc2c(Cl)c(OC)cc(OC)c2Cl)n1` [Example 17], in [1], the GI50 is less than 1000 nM.
On the same count and under the same terms, under `COc1cc(OC)c(Cl)c(Nc2ncccc2-c2ncnc(Nc3ccc(N4CCOCC4)nc3OC)n2)c1Cl` [Example 16] stands greater than 10000 nM; under `COc1cc(OC)c(Cl)c(Nc2ncccc2-c2ncnc(Nc3ccc(N4CCN(C(C)=O)CC4)cc3)n2)c1Cl` [Example 11, 1-(4-(4-((4-(2-((2,6-dichloro-3,5-dimethoxyphenyl)amino)pyridin-3-yl)-1,3,5-triazin-2-yl)amino)phenyl)piperazin-1-yl)ethan-1-one], less than 1000 nM.
Molecule `COc1cc(N2CCOCC2)ccc1Nc1ncnc(-c2cccnc2Nc2c(Cl)c(OC)cc(OC)c2Cl)n1` [Example 15] registered a GI50 in [1] greater than 10000 nM.
With `COc1cc(OC)c(Cl)c(Nc2ncccc2-c2ncnc(Nc3ccc(N4CCOCC4)cc3)n2)c1Cl` [Example 9], in [1], the concentration for 50% growth inhibition (GI50) fell in the range of 1000 to 10000 nM.
Molecule `COc1cc(OC)c(Cl)c(Nc2ncccc2-c2ncnc(Nc3cnn(C)c3)n2)c1Cl` [Example 18] gave a GI50 in test [1] of less than 1000 nM.
Consider `CCN1CCN(c2cccc(Nc3ncnc(-c4cccnc4Nc4c(Cl)c(OC)cc(OC)c4Cl)n3)c2)CC1` [Example 8], for which the GI50 in test [1] is less than 1000 nM; in test [7], less than 1000 nM; in [8], 1000 to 10000 nM; in test [9], less than 1000 nM; in [10], 1000 to 10000 nM. The IC50 in test [2] was less than 100 nM; in test [3], 100 to 1000 nM; in [4] it was less than 100 nM; in test [5] it was less than 100 nM; in test [6], 100 to 1000 nM.
As to `COc1cc(OC)c(Cl)c(Nc2ncccc2-c2ncnc(Nc3cnn(CCCN(C)C)c3)n2)c1Cl` [Example 20, 4-(2-((2,6-dichloro-3,5-dimethoxyphenyl)amino)pyridin-3-yl)-N-(1-(3-(dimethylamino)propyl)-1H-pyrazol-4-yl)-1,3,5-triazin-2-amine], the GI50 in [1] is less than 1000 nM.
Still for that read-out and setting: with `C=CCn1cc(Nc2ncnc(-c3cccnc3Nc3c(Cl)c(OC)cc(OC)c3Cl)n2)cn1` [Example 19, N-(1-allyl-1H-pyrazol-4-yl)-4-(2-((2,6-dichloro-3,5-dimethoxyphenyl)amino)pyridin-3-yl)-1,3,5-triazin-2-amine] the figure was greater than 10000 nM; with `COc1cccc(Nc2ncnc(-c3cccnc3Nc3c(Cl)c(OC)cc(OC)c3Cl)n2)c1` [Example 6], less than 1000 nM.
On the same count and under the same terms, under `COc1cc(OC)c(Cl)c(Nc2ncccc2-c2ncnc(Nc3cnn(C4CCN(C(=O)OC(C)(C)C)CC4)c3)n2)c1Cl` [Example 23, Tert-butyl 4-(4-((4-(2-((2,6-dichloro-3,5-dimethoxyphenyl)amino)pyridin-3-yl)-1,3,5-triazin-2-yl)amino)-1H-pyrazol-1-yl) piperidine-1-carboxylate] stands less than 1000 nM.
`COc1cc(OC)c(Cl)c(Nc2ncccc2-c2ncnc(Nc3ccc(N4CCOCC4)nc3)n2)c1Cl` [Example 10] displayed a 50% growth inhibitory concentration (GI50) in test [1] of less than 1000 nM.
The molecule `COc1cc(OC)c(Cl)c(Nc2ncccc2-c2ncnc(Nc3ccc(N4CCC(O)CC4)cc3)n2)c1Cl` [Example 12] registered a GI50 in [1] of less than 1000 nM.
On to `COc1cc(OC)c(Cl)c(Nc2ncccc2-c2ncnc(N)n2)c1Cl` [Example 2, 4-(2-((2,6-dichloro-3,5-dimethoxyphenyl)amino)pyridin-3-yl)-1,3,5-triazin-2-amine], for which the GI50 in test [1] is less than 1000 nM.
`COc1cc(OC)c(Cl)c(Nc2ncccc2-c2ncnc(Nc3ccc(N(C)C)cc3)n2)c1Cl` [Example 7, N^1-(4-(2-((2,6-dichloro-3,5-dimethoxyphenyl)amino)pyridin-3-yl)-1,3,5-triazin-2-yl)-N^4,N^4-dimethylbenzene-1,4-diamine] yielded a GI50 in test [1] of less than 1000 nM.
`COc1cc(OC)c(Cl)c(Nc2ncccc2-c2ncnc(Nc3ccc(N4C[C@@H](C)N[C@@H](C)C4)cc3)n2)c1Cl` [Example 13]: the GI50 in test [1] was less than 1000 nM; in [7], less than 1000 nM; in test [8], less than 1000 nM; in [9], less than 1000 nM; in test [10], 1000 to 10000 nM. The IC50 in test [2] was less than 100 nM; in test [3], 100 to 1000 nM; in test [4], less than 100 nM; in [5] it was less than 100 nM; in [6], 100 to 1000 nM.
